Two compounds from patent US9725454B2, “Crystalline forms of ponatinib hydrochloride” (SANDOZ AG, priority 2013, dated 2017) can be followed below.

Data set [1] can be described thus: Aqueous solubility by HPLC analysis. Type of data set: physicochemical. To be noted: water, thermodynamic from solid. The method, then: (§1) To determine concentration, solutions were diluted in methanol; to determine purity, 2.7 mg material was dissolved in 1 mL methanol. The conditions listed below were then used. • Instrument: Agilent 1100 • Column: Waters Symmetry C18 5μ 150×3.9 mm column • Column Temperature: 25° C. • Autosampler Temperature: Not controlled • UV wavelength: 254 nm • Injection Volume: 3 μL • Flow Rate: 1.2 mL/min • Mobile Phase A: 0.01% formic acid in water • Mobile Phase B: 0.01% formic acid in ACN • Gradient program: […]
A filtered solution of ponatinib HCl in acetonitrile/water (1:1) was allowed to slowly evaporate at ambient temperature. A hydrated crystal form 8 showing characteristic peaks at 6.21 and 10.5 2Theta was found. Approximately 11.4% water content was found by KF analysis. […] (peak at 90° C.).
A filtered solution of ponatinib HCl in acetone/water (1:1) was allowed to slowly evaporate. A hydrated crystal form 8 showing characteristic peaks at 6.21 and 10.5 2Theta was found. Approximately 11.4% water content was found by KF analysis. […] (peak at 90° C.).
Ponatinib HCl form 1 was slurried in water for 24 h at 22° C. A hydrated crystal form 8 showing characteristic peaks at 6.21 and 10.5 2Theta was found. Approximately 11.4% water content was found by KF analysis. […] (peak at 90° C.).

The nature of data set [2]: Storage stability, chemical purity by HPLC. To be noted: conclusion from the stability studies. Type of data set: physicochemical. The method, then: as §1
In order to assess physical and chemical stability, Ponatinib HCl crystal form 1 obtained by direct crystallization according to example 4, and the crystalline ponatinib HCl Form 1 which was obtained via Form 8 according to example 7, were stored at 25° C./60%RH and 40° C./75% RH. After 1 week, the three samples were analysed by XRPD and HPLC (chemical purity).

The term solubility denotes the dissolved amount per volume that the medium holds. Read a high solubility as much dissolved substance.

Where a name gives a salt, the structure may show the parent alone.

In data set [1], `Cc1ccc(C(=O)Nc2ccc(CN3CCN(C)CC3)c(C(F)(F)F)c2)cc1C#Cc1cnc2cccnn12` [Form 8, ponatinib hydrochloride] gave a solubility of 620 µg/mL. Regarding `Cc1ccc(C(=O)Nc2ccc(CN3CCN(C)CC3)c(C(F)(F)F)c2)cc1C#Cc1cnc2cccnn12` [Form 1 via form 8, ponatinib hydrochloride], the “chemical stability compared with form 1 obtained by direct crystallization” value in data set [2] is reported as “higher chemical stability”.
